Ends that are not written are not given here. maleimide monolayer = not defined here
tested on: αIIbβ3 CHO K1 cells; experiment: Ac-GXGDSC peptide array cell adhesion, αIIbβ3 CHO K1 cells; type: cell-based, human; conditions: 0.5% peptide spots; 300 μM cRGDFG
Procedure: Cysteine-terminated peptides were immobilized onto maleimide-presenting SAMs by adding 40 μL of 1 mM peptide solution to the biochip and incubating at 37° C. for 1 hour. Substrates were rinsed with DIUF water and ethanol and dried under a stream of nitrogen. αIIbβ3 CHO K1 cells were detached from culture plates with 1 mM EGTA/2 mM EDTA in PBS (phosphate-buffered saline), rinsed with serum-free F-12K medium, centrifuged and resuspended in serum-free F-12K medium supplemented with cRGDFG (SEQ ID NO: 12) (300 μM) and 1× penicillin/streptomycin. After 15-minute of incubation, cells (200,000/mL) were added to substrates in 24-well culture plates. After 2 hour incubation at 37° C. and 5% CO2, media was exchanged for F-12K medium supplemented with 10% FBS, 1× penicillin/streptomycin and cRGDFG (SEQ ID NO: 12) (300 μM). After 2 hours, the substrates were washed gently with warm PBS, and adherent cells were immediately fixed with 4% formaldehyde for 30 minutes, visualized with a 20× objective of a Zeiss Axiovert 200 inverted microscope, and photographed. For cell adhesion assays mediated by Ac-GXGDSC (SEQ ID NO: 26), αIIbβ3 CHO K1 cells were incubated on a 5×4 circle (1 mm diameter) array for 1 hour with serum-free F-12K medium supplemented with cRGDFG (SEQ ID NO: 12) (300 μM) and 1× penicillin/streptomycin, followed by media exchange to F-12K medium supplemented with 10% FBS, 1× penicillin/streptomycin and cRGDFG (SEQ ID NO: 12) (300 μM. The substrates were washed with warm PBS, and adherent cells were immediately fixed and permeabilized with 4% formaldehyde and 0.5% Triton-X for 30 minutes. Fixed cells were stained with DAPI, visualized and photographed with a 20× objective as described. The number of adherent cells per field of view was counted using Image J software. Cells were counted in at least three fields for each circle, and each experiment was repeated 3 times. The degree of adhesion is reported as a percentage of cells that adhere relative to control experiments with the peptide Ac-GRGDSC (SEQ ID NO: 28).
To further assay the binding of peptide ligands to the […] integrin for XGD peptide ligands, an array was used to assess the adhesion of cells to peptides having the arginine residue substituted with each amino acid other than cysteine (e.g., A, D, E, F, G, H, I, K, L, M, N, P, Q, R, S, T, V, W, and Y). The library of Ac-GXGDSC (SEQ ID NO: 26) peptides was synthesized and immobilized in an array with each peptide occupying a 1 mm diameter region of the monolayer (FIG. 61). A suspension of αIIbβ3 CHO K1 cells was applied to the entire array and cells were allowed to attach to regions presenting the various peptides. The substrates were then rinsed and stained with DAPI, and the cells were counted to determine the relative efficiency of cell attachment to peptides in the library. […] Substitution with leucine and isoleucine were also active, though at a lower level.

Row | Molecule | cell adhesion on Ac-GXGDSC array relative to Ac-GRGDSC
1 | Ac-GVGDSC (Ac-GVGDSC-NH2) | mediated αIIbβ3 CHO K1 cell adhesion
2 | Ac-GAGDSC (Ac-GAGDSC-NH2) | mediated αIIbβ3 CHO K1 cell adhesion
3 | Ac-GGGDSC (Ac-GGGDSC-NH2) | mediated αIIbβ3 CHO K1 cell adhesion
4 | Ac-GIGDSC (Ac-GIGDSC-NH2) | mediated αIIbβ3 CHO K1 cell adhesion
5 | Ac-GLGDSC (Ac-GLGDSC-NH2) | mediated αIIbβ3 CHO K1 cell adhesion
6 | Ac-GKGDSC (Ac-GKGDSC-NH2) | mediated αIIbβ3 CHO K1 cell adhesion

tested on: αIIbβ3 CHO K1 cells; experiment: Cell adhesion inhibition assay with soluble peptides; type: cell-based, human; conditions: monolayer presenting GRGDS
Procedure: Suspensions of αIIbβ3 CHO K1 cells (100,000/mL) were incubated with cRGDFG (SEQ ID NO: 12) (300 μM) in serum-free F-12K medium with 1 mg/mL BSA (bovine serum albumin) and 1× penicillin/streptomycin for 15 minutes at 37° C. and 5% CO2. These suspensions were then supplemented with soluble peptides at concentrations ranging from 1 pM to 100 μM and further incubated for 15 minutes at 37° C. and 5% CO2. Cells were then added to monolayers and incubated at 37° C. and 5% CO2 for 2 hours, then media was exchanged for F-12K medium supplemented with 10% FBS and 1× penicillin/streptomycin. The substrates were further incubated for 2 hours. The substrates were washed gently with warm PBS, and adherent cells were immediately fixed and permeabilized with 4% formaldehyde and 0.5% Triton-X for 30 minutes. Fixed cells were stained with DAPI, visualized and photographed with a 20× as described previously. The number of adherent cells per field of view was counted using Image J. Cells were counted in at least five fields for each substrate, and each experiment was repeated 3 times. The degree of inhibition is reported as a percentage of cells that adhere relative to control experiments in the absence of soluble peptide.
To verify that the two peptides interact with the same site on αIIbβ3, it was determined whether the peptides GRGDS (SEQ ID NO: 4), HHLGGAKQAGDV (SEQ ID NO: 1) and AGDV (SEQ ID NO: 22), in soluble form, could block the attachment of cells to the monolayers presenting these ligands. In these experiments identical suspensions of cells (100,000/mL) were first incubated in serum-free F-12K medium supplemented with cRGDFG (SEQ ID NO: 12) (300 μM) and with the soluble peptides in concentrations ranging from 1 pM to 100 μM and then applied the mixtures to monolayers presenting either the GRGDSC (SEQ ID NO: 11), HHLGGAKQAGDVC (SEQ ID NO: 21), or AGDVC (SEQ ID NO: 17) peptide (SEQ ID NO: 17) (FIG. 5). Cells were allowed to attach for 2 hours, after which media was exchanged to 10% FBS F-12K medium (supplemented with cRGDFG (SEQ ID NO: 12)) and cultured for an additional 2 hours. The slides were then rinsed and nuclei were stained with DAPI to facilitate counting of the adherent cells. […] This experiment again verifies that the cell attachment is mediated by the immobilized peptide alone and not non-specific interactions between other cell-surface molecules and the monolayer.

Row | Molecule | block of cell attachment by soluble peptide
7 | AGDV (completely synthesized peptide) | blocked cell attachment
8 | HHLGGAKQAGDV (not fully specified (C-terminus)) | blocked cell attachment

same assay, conditions: monolayers presenting GRGDSC, HHLGGAKQAGDVC or AGDVC; soluble peptide 1 pM to 100 μM; 300 μM cRGDFG

Row | Molecule | block of cell attachment by soluble peptide
9 | GGRDGS (scrambled peptide) | had no effect on cell adhesion
10 | GADGV (scrambled peptide) | had no effect on cell adhesion
11 | AGDV (completely synthesized peptide) | could block cell attachment to monolayers presenting any of the three peptides
12 | GRGDS (synthesized peptide inhibitor) | could block cell attachment to monolayers presenting any of the three peptides
13 | HHLGGAKQAGDV (not fully specified (C-terminus)) | could block cell attachment to monolayers presenting any of the three peptides
14 | GHHLGGADQAGKV (scrambled peptide) | had no effect on cell adhesion

target: T1, human αIIbβ3 integrin on transfected CHO K1 cells (human, UniProt P08514 32-1039; P05106 27-788); experiment: adhesion of αIIbβ3 CHO K1 cells to the peptide monolayer, 300 µM cRGDFG present; conditions: not given
T1 construct: whole, on cells; CHO K1 cells transfected with human αIIb and β3 cDNA; about 30% of the cells expressed the receptor; also called platelet receptor; platelet integrin
Procedure: For cell adhesion assays mediated by Ac-GXGDSC (SEQ ID NO: 26), αIIbβ3 CHO K1 cells were incubated on a 5×4 circle (1 mm diameter) array for 1 hour with serum-free F-12K medium supplemented with cRGDFG (SEQ ID NO: 12) (300 μM) and 1× penicillin/streptomycin, followed by media exchange to F-12K medium supplemented with 10% FBS, 1× penicillin/streptomycin and cRGDFG (SEQ ID NO: 12) (300 μM. The substrates were washed with warm PBS, and adherent cells were immediately fixed and permeabilized with 4% formaldehyde and 0.5% Triton-X for 30 minutes. Fixed cells were stained with DAPI, visualized and photographed with a 20× objective as described. The number of adherent cells per field of view was counted using Image J software. Cells were counted in at least three fields for each circle, and each experiment was repeated 3 times. The degree of adhesion is reported as a percentage of cells that adhere relative to control experiments with the peptide Ac-GRGDSC (SEQ ID NO: 28).
CHO K1 cells were used that were transfected with the αIIbβ3 receptor, as described previously (Salsmann et al., 2005). Cells were transfected with pcDNA3.1 vectors that coded for αIIb and β3 using FuGENE6 and analyzed by FACS after labeling with the PAC-1 (anti-αIIbβ3) and H-96 (anti-β3) antibodies. Approximately 30% of the cells expressed the receptor (FIG. 2A). Because the CHO K1 cells also express αv and α5 integrins on their surfaces, adhesion experiments were performed in the presence of the cyclic peptide cRGDFG (SEQ ID NO: 12), where F is a D amino acid. […] Treatment of transfected cells with both the cyclic peptide inhibitor and the PAC-1 antibody, however, prevented cell adhesion to the monolayer (FIG. 2F).

Row | Molecule | binding result
15 | HHLGGAC(maleimide monolayer)-NH2 (reading uncertain, also called 0.5% HHLGGAC SAM) [HHLGGAC (SEQ ID NO: 13), immobilized on a self-assembled monolayer] | no binding
16 | KQAGC-NH2 (not fully specified (residue 5); also: C-terminal Cys thiol linked to maleimide of monolayer, also called 0.5% KQAGC SAM) [KQAGC (SEQ ID NO: 20), immobilized on a self-assembled monolayer] | no binding
17 | KQAGDVC(maleimide monolayer)-NH2 (reading uncertain, also called 0.5% KQAGDVC SAM) [KQAGDVC (SEQ ID NO: 14), immobilized on a self-assembled monolayer] | binds
18 | QAGDVC-NH2 (not fully specified (residue 6); also: C-terminal Cys thiol linked to maleimide of monolayer, also called 0.5% QAGDVC SAM) [QAGDVC (SEQ ID NO: 16), immobilized on a self-assembled monolayer] | binds
19 | GGAKQAC(maleimide monolayer)-NH2 (reading uncertain, also called 0.5% GGAKQAC SAM) [GGAKQAC (SEQ ID NO: 15), immobilized on a self-assembled monolayer] | no binding
20 | GGRDGSC(maleimide monolayer)-NH2 (reading uncertain, Control; also called 0.5% GGRDGSC) [GGRDGSC (SEQ ID NO: 70), scrambled peptide immobilized on a self-assembled monolayer] | no binding
21 | KQAGDC-NH2 (not fully specified (residue 6); also: C-terminal Cys thiol linked to maleimide of monolayer, also called 0.5% KQAGDC SAM) [KQAGDC (SEQ ID NO: 19), immobilized on a self-assembled monolayer] | binds
22 | GHHLGGADQAGKVC-NH2 (not fully specified (residue 14); also: C-terminal Cys thiol linked to maleimide of monolayer, Control) [GHHLGGADQAGKVC (SEQ ID NO: 71), scrambled peptide immobilized on a self-assembled monolayer] | no binding
23 | GDVC(maleimide monolayer)-NH2 (reading uncertain, also called 0.5% GDVC SAM) [GDVC (SEQ ID NO: 18), immobilized on a self-assembled monolayer] | no binding
24 | AGDVC(maleimide monolayer)-NH2 (not fully specified; reading uncertain, also called 0.5% AGDVC SAM) [AGDVC (SEQ ID NO: 17), immobilized on a self-assembled monolayer] | binds
